Data reported in patent US12011447B2, “Pharmaceutical composition for treating thyroid cancer comprising tyrosine kinase activity inhibitor as active ingredient” (Kyungpook National University Industry-Academic Cooperation …, priority 2017, dated 2024).
“Also recorded” adds a separate entry of the source.

Key:
[1] = test system: anaplastic thyroid cancer xenograft (8505C-PNIS-PCMV); test: In vivo 99mTc-pertechnetate gamma camera imaging; set-up: species or system Balb/c nude mice; conditions: for 99mTc-pertechnetate uptake (tumor ROI normalized to background), FIG. 16B: 50 mg/kg
Experimental: Female Balb/c nude mice, 5.5-week old with an average weight of 18.9±0.37 g (mean±standard deviation [SD]), were purchased (Hamamatsu, Shizuoka, Japan). The mice were acclimated under specific pathogen-free conditions for one week before starting the experiment, and were maintained at a temperature of 20 to 25° C. and a relative humidity of 40 to 70%. To establish anaplastic thyroid cancer xenograft mouse models, 8505C-PNIS-PCMV s (5×10^6) were mixed with Matrigel (Corning) at a ratio of 1:1 and injected subcutaneously into the right flank region of each mouse.
When the injected 8505C-PNIS-PCMV cells grew to a size of about 50 mm^3, the mice were divided into two groups (n=5): a vehicle group; and a TKI-0266-administered group (50 mg/kg) injected with TKI-0266 by intraperitoneal injection every day for 5 days. To acquire gamma-camera images, 18.5 to 22.2 MBq ^99mTc-pertechnetate was administered to all the mice by intravenous injection. Whole body pinhole gamma camera imaging using a 2-mm pinhole collimator was acquired by infinia II gamma camera (GE Healthcare, USA). During the experiment, the mice were maintained under anesthesia with isoflurane (Forane, ChoongWae Co., Ltd., Korea). In order to estimate the count value, quantitative analysis was performed by quantifying the regions of interest (hereinafter referred to as ROI) in the mouse tumor region. Finally, in order to confirm the pertechnetate absorbed into the tumor, normalization was performed with a background activity ROI of the same size in the mouse head region.

[2] = R-luc BLI signal indicating cell viability in dual-reporter cells; format: cell-based, human; conditions: human; 8505C-PNIS-PCMV cells, 24 hours, screening; read-out: BLI signal activity of R-luc (cell viability) compared to vehicle group
From the text: (§1) A pNIS-FL2-TurboFP635-pCMV-Rluc recombinant vector expressing reporter genes driven by dual promoters was constructed by Cosmo Genetech, Ltd. (Republic of Korea) using a pNIS-FL2-TurboFP635 vector and a pcDNA3.1/Hygro(+) vector. Specifically, in order to screen a substance that increases the activity of NIS promoter, Firefly-luciferase2(F-luc2) and TurboFP635 were included downstream (clockwise) of the NIS promoter. In order count cells, CMV promoter and Renilla-luciferase (R-luc) were included upstream (counterclockwise) of the NIS promoter. The pNIS-FL2-TurboFP635 vector was provided from Dr. Abhijit De (ACTREC, India), and the pcDNA3.1/Hygro(+) vector was purchased from invitrogen (USA).
(§2) The 8505C cell line was transfected with the pNIS-FL2-TurboFP635-pCMV-Rluc recombinant vector using the Fu-GENE HD solution according to the protocols of the manufacturer (Promega). […]
(§3) To examine transcriptional regulation of the NIS (sodium iodide symporter) promoter, the 8505C-PNIS-PCMV cells were treated with a tyrosine kinase inhibitor (hereinafter referred to as TKI) library for 24 hours. Next, D-luciferin (150 μg/ml) was added to the cells, and the activity of NIS promoter was measured by IVIS Lumina III (Perkin-Elmer, Wellesley, Mass., USA). To normalize the NIS promoter activity to cell number, 10 μg/ml of h-coelenterazine was added to the cells, and the activity of R-luc was measured. […]

8505C-PNIS-PCMV cells = test: as above; format: cell-based, human; conditions: FIG. 7B
From the text: as §1, §2, §3

NIS = test: Immunohistochemistry of NIS in tumor tissue; format: in vivo, Balb/c nude mice; conditions: xenograft tumor sections
From the text: At the end of the experiment, the mice were sacrificed, and the tumors were isolated from the mouse's right flank and fixed overnight with 4% formalin. The isolated tumors were embedded in paraffin, sectioned to a 4-μm thickness, and mounted on slides. The tumor sections on the slides were de-paraffinized and stained with hematoxylin & eosin. For immunohistochemistry, NIS (Thermo Fisher Scientific; diluted at 1:200) and cleaved caspase-3 (Cell signaling; diluted at 1:200) antibodies were used.

8505C cells = test: 131I clonogenic assay; format: cell-based, human
Experimental: 8505C cells (4×10^5) cells were seeded in a six-well plate, and then treated with TKI-0266 and incubated for 24 hours. Next, the medium was removed, and the cells were washed twice with bHBSS, and then incubated in the presence or absence of 50 μCi/ml ^131I (KIRAMS, Korea) containing 30 μM NaI for 7 hours at 37° C. After incubation, the cells were washed twice with bHBSS, re-seeded in a new six-well plate at a density of 1,000 cells/well, and then incubated for 7 days to induce colony formation. On day 7, the medium was removed and the cells were washed twice with PBS. A fixation buffer containing acetic acid:methanol at a ratio of 1:7 was added to the cells and the plate was left to stand at room temperature for 5 minutes to fix colonies. The fixed colonies were stained with 0.05% crystal violet for 1 hour and immersed in tap water to remove crystal violet. The colonies containing 50 or more cells were counted. Percentage inhibition was calculated as the number of colonies formed in the TKI-0266-treated group relative to the vehicle control.

For `Cc1cc2c(N(C)C3CCCCC3)ncnc2s1` [TKI-0266], the “99mTc-pertechnetate accumulation in the cancer cells (radioisotope uptake)” value ([1]; 50 mg/kg every day for 5 days) was “significantly increased; also recorded: the best”, the “99mTc-pertechnetate uptake (tumor ROI normalized to background), FIG. 16B” value ([1]; day 0) was 0.852±0.210 and the “99mTc-pertechnetate uptake (tumor ROI normalized to background), FIG. 16B” value ([1]; day 6) was 1.21±0.24. The viability at 24 h [2] was about 75%, the “BLI signal activity of R-luc, vehicle group vs treated group” value (8505C-PNIS-PCMV cells) was “did not significantly differ” and the “expression of NIS-specific protein in tumor tissue (immunohistochemistry)” value (NIS) was “high”. The “colony-forming ability compared to vehicle group” value (8505C cells; TKI-0266 alone) was “decreased” and the “colony-forming ability compared to vehicle, 131I-treated and TKI-0266-treated groups” value (8505C cells; co-treated with 131I and TKI-0266) was “significantly decreased”.
